# Measured values published in patent US20210092956A1, “Safening Rice Against Group 15 Herbicides” (THE BOARD OF TRUSTEES OF THE UNIVERSITY OF ARKANSAS, priority 2019, published 2021).
# Tests used:
# weedy rice or red rice = experiment: Field weed control with ME acetochlor, weedy rice; type: in vivo, Oryza sativa L. var. sylvatica; details: fenclorim seed treatment with ME acetochlor
# Experimental: (§1) The experiment was conducted under standard small-plot research practices. Diamond rice was planted at 72 seeds m^−1 row. […] Data were analyzed using R and subjected ANOVA. Means were separated using Fisher's LSD (α=0.05).
# barnyardgrass = experiment: Field weed control with ME acetochlor, barnyardgrass; type: in vivo, Echinochloa crus-galli; details: fenclorim seed treatment with ME acetochlor
# Experimental: as §1
# Diamond rice = tested on: Diamond rice; parameters: species or system Oryza sativa L.; details: in vivo
# Experimental: The experiment was conducted within a growth chamber at 13.8° C. (night) and 23.8° C. (day) using a 10-hour night and 14-hour day photoperiod. Diamond rice was planted in pots filled to the same weight of soil to maintain 80% soil moisture throughout the experiment. […] Data were analyzed using R and subjected to ANOVA. Means were separated using Fisher's LSD (α=0.05).
smiles,measurement,setting,value
"Clc1cc(Cl)nc(-c2ccccc2)n1 [fenclorim, 4,6-dichloro-2-phenyl-pyrimidine]",effect of the seed treatment on weed control,weedy rice or red rice,did not negatively affect weed control
same,effect of the seed treatment on weed control,barnyardgrass,did not negatively affect weed control
same,Biomass,Diamond rice,99%
same,Height,Diamond rice,13.7 cm
same,Injury,Diamond rice,0%
same,Stand reduction,Diamond rice,3%
